Test results as given in ChEMBL document CHEMBL1201862, “PubChem BioAssay data set” (2004).
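Cells were grown in 96-well plates and exposed to each compound for 48 hours at five concentrations; endpoints were interpolated linearly between bracketing concentrations, or set to the highest concentration if not reached. GI50: concentration for 50% inhibition of growth.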 The source made the active and inactive calls. Cut-off read from the data, not from the text of the source: active = GI50 up to about 1.1 µM and inactive = higher.

How the values were obtained:
Experiment in all cases: growth of human tumour cells (NCI), 48 h
COLO 205 = tested on: COLO 205
DU-145 = tested on: DU-145
EKVX = tested on: EKVX
HCT-116 = tested on: HCT-116
HCT-15 = tested on: HCT-15
HT-29 = tested on: HT-29
KM12 = tested on: KM12
M14 = tested on: M14
MDA-MB-231 = tested on: MDA-MB-231
OVCAR-5 = tested on: OVCAR-5
OVCAR-8 = tested on: OVCAR-8
PC-3 = tested on: PC-3
RPMI-8226 = tested on: RPMI-8226
RXF 393 = tested on: RXF 393
SF-295 = tested on: SF-295
SN12C = tested on: SN12C
TK-10 = tested on: TK-10
U-251 = tested on: U-251
UO-31 = tested on: UO-31
HOP-92 = tested on: HOP-92

Compound	GI50 (COLO 205)	GI50 (DU-145)	GI50 (EKVX)	GI50 (HCT-116)	GI50 (HCT-15) [µM]	GI50 (HT-29)	GI50 (KM12)	GI50 (M14)	GI50 (MDA-MB-231)	GI50 (OVCAR-5)	GI50 (OVCAR-8)	GI50 (PC-3)	GI50 (RPMI-8226)	GI50 (RXF 393)	GI50 (SF-295)	GI50 (SN12C)	GI50 (TK-10)	GI50 (U-251)	GI50 (UO-31)	GI50 (HOP-92)
CN(C)c1nc(-c2ccccc2)c(C(=O)c2c[nH]c3ccccc23)s1	4.78 µM (inactive)	34.2 µM (inactive)	26 µM (inactive)	3.88 µM (inactive)	3.9	3.51 µM (inactive)	4.2 µM (inactive)	4.59 µM (inactive)	14.5 µM (inactive)	> 24.3 µM (inactive)	9.62 µM (inactive)	> 31.3 µM (inactive)	3.16 µM (inactive)	14.2 µM (inactive)	3.92 µM (inactive)	18.2 µM (inactive)	7.53 µM (inactive)	5.66 µM (inactive)	11.2 µM (inactive)	–
COc1cc(C2C3=C(N=C4SC(C(C)=O)=C(C)N42)c2ccccc2CC3)cc(OC)c1OC (stereo not given)	54.3 µM (inactive)	> 100 µM (inactive)	85.5 µM (inactive)	> 100 µM (inactive)	–	64.4 µM (inactive)	> 100 µM (inactive)	> 100 µM (inactive)	49.2 µM (inactive)	> 100 µM (inactive)	> 100 µM (inactive)	> 100 µM (inactive)	13.8 µM (inactive)	46.8 µM (inactive)	68.7 µM (inactive)	> 100 µM (inactive)	–	> 100 µM (inactive)	> 100 µM (inactive)	> 100 µM (inactive)
N#Cc1nnn(-c2ccc(Br)cc2)c1O	> 100 µM (inactive)	> 100 µM (inactive)	> 100 µM (inactive)	> 100 µM (inactive)	> 100	> 100 µM (inactive)	> 100 µM (inactive)	> 100 µM (inactive)	> 100 µM (inactive)	> 100 µM (inactive)	> 100 µM (inactive)	> 100 µM (inactive)	> 100 µM (inactive)	> 100 µM (inactive)	> 100 µM (inactive)	> 100 µM (inactive)	> 100 µM (inactive)	> 100 µM (inactive)	> 100 µM (inactive)	–
CN1C(=O)[C@@H]2[C@@H]3c4ccccc4N(S(=O)(=O)C(F)(F)F)[C@@H]3c3[nH]c4ccccc4c3[C@@H]2C1=O	7.91 µM (inactive)	98.2 µM (inactive)	5.74 µM (inactive)	17.2 µM (inactive)	16.9	7.67 µM (inactive)	–	–	13.2 µM (inactive)	> 100 µM (inactive)	83 µM (inactive)	8.47 µM (inactive)	8.39 µM (inactive)	10.3 µM (inactive)	50.7 µM (inactive)	> 100 µM (inactive)	47.8 µM (inactive)	31.3 µM (inactive)	14.1 µM (inactive)	1.63 µM (inactive)
Cc1ccnn1CCc1ccc(Cl)cc1Cl	35 µM (inactive)	37.4 µM (inactive)	2.31 µM (inactive)	47.5 µM (inactive)	36.5	36.8 µM (inactive)	27 µM (inactive)	24.4 µM (inactive)	29.3 µM (inactive)	32.4 µM (inactive)	27.9 µM (inactive)	27 µM (inactive)	8.73 µM (inactive)	9.91 µM (inactive)	18 µM (inactive)	11.8 µM (inactive)	20.8 µM (inactive)	29.1 µM (inactive)	4.63 µM (inactive)	–
O=S(=O)(O)c1ccc2cc(/N=N\c3cc(S(=O)(=O)O)c4cccnc4c3O)ccc2c1	> 100 µM (inactive)	> 100 µM (inactive)	> 100 µM (inactive)	> 100 µM (inactive)	> 100	> 100 µM (inactive)	> 100 µM (inactive)	> 100 µM (inactive)	> 100 µM (inactive)	> 100 µM (inactive)	> 100 µM (inactive)	> 100 µM (inactive)	> 100 µM (inactive)	> 100 µM (inactive)	> 100 µM (inactive)	–	> 100 µM (inactive)	> 100 µM (inactive)	> 100 µM (inactive)	> 100 µM (inactive)
CCOC(=O)CNC(=O)C(CSCc1ccc(Br)cc1)NC(=O)CCC(N)C(=O)OCC (stereo not given)	> 50 µM (inactive)	> 50 µM (inactive)	> 50 µM (inactive)	> 50 µM (inactive)	> 50	> 50 µM (inactive)	40.6 µM (inactive)	> 50 µM (inactive)	> 50 µM (inactive)	> 50 µM (inactive)	> 50 µM (inactive)	> 50 µM (inactive)	> 50 µM (inactive)	> 50 µM (inactive)	> 50 µM (inactive)	> 50 µM (inactive)	–	> 50 µM (inactive)	> 50 µM (inactive)	> 50 µM (inactive)
CCOC(=O)c1csc(NC(=O)C(C)N2CCCCC2)n1 (stereo not given)	> 100 µM (inactive)	> 100 µM (inactive)	> 100 µM (inactive)	–	> 100	> 100 µM (inactive)	> 100 µM (inactive)	> 100 µM (inactive)	> 100 µM (inactive)	> 100 µM (inactive)	> 100 µM (inactive)	> 100 µM (inactive)	> 100 µM (inactive)	> 100 µM (inactive)	> 100 µM (inactive)	–	> 100 µM (inactive)	> 100 µM (inactive)	> 100 µM (inactive)	> 100 µM (inactive)
O=C1C(N2CCNCC2)=C(Cl)C(=O)c2ncccc21	> 10 µM (inactive)	6.79 µM (inactive)	> 10 µM (inactive)	1.86 µM (inactive)	> 10	> 10 µM (inactive)	> 10 µM (inactive)	> 10 µM (inactive)	> 10 µM (inactive)	> 10 µM (inactive)	6.19 µM (inactive)	> 10 µM (inactive)	3.37 µM (inactive)	> 10 µM (inactive)	> 10 µM (inactive)	> 10 µM (inactive)	> 10 µM (inactive)	> 10 µM (inactive)	–	3.25 µM (inactive)
CCCNC(C#N)c1ccc(C(C#N)NCCC)cc1 (stereo not given)	81.3 µM (inactive)	> 100 µM (inactive)	> 100 µM (inactive)	40.3 µM (inactive)	> 100	> 100 µM (inactive)	> 100 µM (inactive)	> 100 µM (inactive)	> 100 µM (inactive)	> 100 µM (inactive)	29.9 µM (inactive)	> 100 µM (inactive)	–	> 100 µM (inactive)	> 100 µM (inactive)	> 100 µM (inactive)	> 100 µM (inactive)	> 100 µM (inactive)	> 100 µM (inactive)	45.4 µM (inactive)
Nc1nc(Cl)cc(NCC2(CCO)CCC2)n1	–	> 100 µM (inactive)	59.4 µM (inactive)	> 100 µM (inactive)	> 100	> 100 µM (inactive)	> 100 µM (inactive)	–	> 100 µM (inactive)	> 100 µM (inactive)	> 100 µM (inactive)	> 100 µM (inactive)	> 100 µM (inactive)	80.5 µM (inactive)	> 10 µM (inactive)	> 100 µM (inactive)	> 100 µM (inactive)	> 100 µM (inactive)	> 100 µM (inactive)	> 100 µM (inactive)
